Measurements published in US20050288283A1, “Topical formulations for treating allergic diseases” (Alcon, Inc., priority 2004, published 2005).
Counter-ions that a name gives are not always drawn.

Assays:
[1] = tested on: human conjunctival tissue mast cells; assay: Histamine release from human conjunctival mast cells (anti-human IgE challenge); type: cell-based; settings: Mast cell; goat-anti-human IgE 10 μg/mL challenge 15 min, after 1 or 15 minutes drug treatment; read-out: Human Conjunctiva Mast Cell Histamine Release IC50
Protocol: Methods detailing preparation of monodispersed human conjunctival tissue mast cell and mediator release studies with these cells have been described (Miller et al. 1996). Briefly, human conjunctival tissue mast cells were isolated from post-mortem tissue donors obtained within 8 hours of death by various eye banks and transported in Optisol® corneal preservation medium. Tissues were enzymatically digested by repeated exposure (30 min. at 37° C.) to collagenase and hyaluronidase (2× with 200 U each/gm tissue, then 2-4× with 2000 U each/gm tissue) in Tyrode's buffer containing 0.1% gelatin. Each digestion mixture was filtered over Nitex® cloth (100 μm mesh) and washed with an equal volume of buffer. Filtrates were centrifuged at 825×g (7 min). Pellets were resuspended in buffer then combined for enrichment over a […] Percoll® cushion. The enriched pellet was washed and resuspended in supplemented RPMI 1640 medium for equilibration at 37° C.
Cells were harvested from the culture plate and counted for viability (trypan blue exclusion) and mast cell number (toluidine blue 0). Mast cells (5000/tube; 1 mL final volume) were challenged (37° C.) for 15 min with goat-anti-human IgE (10 μg/mL) following treatment (1 or 15 minutes; 37° C.) with test drug or Tyrode's buffer. Total and non-specific release controls were exposed to 0.1% Triton X-100 and goat IgG (10 μg/mL), respectively. The reaction was terminated by centrifugation (500×g, 4° C., 10 min). Supernatants were stored at −20° C. until analyzed for histamine content by R I A Miller, S. et al., Ocular Immunology and Inflammation 4(1): 39-49 (1996).

H1 histamine receptor = target: T1, H1 histamine receptor (Cavia porcellus, UniProt P31389); assay: Histamine receptor radioligand binding in washed rodent brain homogenates ([3H]pyrilamine); parameters: species or system guinea pig; settings: 23° C. for 40 min
T1 construct: tissue Pel-Freez (Rogers, Ark.); host or cells: guinea pig forebrain homogenate (washed membranes)
T1 sequence (P31389 whole entry): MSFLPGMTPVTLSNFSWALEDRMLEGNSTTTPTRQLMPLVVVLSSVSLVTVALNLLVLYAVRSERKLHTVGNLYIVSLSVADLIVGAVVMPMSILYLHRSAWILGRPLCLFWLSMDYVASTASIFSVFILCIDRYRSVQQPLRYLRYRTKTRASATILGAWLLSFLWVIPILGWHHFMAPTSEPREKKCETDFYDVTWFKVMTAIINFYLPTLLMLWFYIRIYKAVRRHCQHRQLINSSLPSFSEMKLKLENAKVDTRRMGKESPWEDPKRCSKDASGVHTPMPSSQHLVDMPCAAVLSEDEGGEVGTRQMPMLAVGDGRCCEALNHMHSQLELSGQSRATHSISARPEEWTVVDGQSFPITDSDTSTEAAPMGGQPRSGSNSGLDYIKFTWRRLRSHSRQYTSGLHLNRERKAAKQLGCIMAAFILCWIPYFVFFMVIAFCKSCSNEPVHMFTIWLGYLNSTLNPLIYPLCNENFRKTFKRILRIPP
Protocol: Histamine receptor binding was conducted in washed rodent brain homogenates. Briefly, guinea pig forebrains (for H1 and H2 receptors) and rat forebrains (for H3 receptor), obtained from Pel-Freez (Rogers, Ark.) were homogenized in 20 ml ice-cold phosphate buffered saline (PBS; pH 7.4) using a Polytron tissue disrupter (setting 5-7 for 10 sec) and centrifuged at 40,000 g for 15 min on a Beckman J2-MC centrifuge. The supernatants were discarded, the tissue pellets re-homogenized in fresh PBS buffer and centrifuged as described above. The final pellets were dispersed in 50 mM sodium potassium phosphate buffer (pH 7.5) and kept frozen at −40° C. until used in the binding assays.
The H1 histamine receptor binding assays were performed according to previously published methods with minor modifications (Chang, R. S. L., Tran, V. T., and Snyder, S. H. J. Neurochem., 32:1653-1663, 1979, Hill, S. J., Young, J. M., and Marrian, D. H. Nature, 270:361-363, 1977, Gajtkowski, G. A., Norris, D. B., Rising, T. J., and Wood, T. P. Nature, 304:65-67,1983, Korte, A., Myers, J., Shih, N.-Y., Egan, R. W., and Clark, M. A. Biochem. Biophys. Res. Comm., 168:979-986, 1990 . Briefly, 50 μl of [3H]pyrilamine (1-2 nM); 24 Ci/mmol from NEN, Boston, Mass.), [3H]tiotidine (4-5 nM; 87 Ci/mmol from NEN, Boston, Mass.) or [3H]N-methyl histamine (1-2 nM; 84 Ci/mmol from NEN, Boston, Mass.) were incubated with 200 μl of 2.5-4.0 mg/ml of frozen-thawed brain homogenates in the presence or absence of unlabeled test compounds (50 μl; 10 pM-100 μM) in a total volume of 500 μl in polypropylene tubes. The non-specific binding was determined with 5 mM histamine. Drug dilutions and dispensing of assay components were performed using a computer-controlled automated system (Biomek; Beckman, Fullerton, Calif.). The assays were conducted at 23° C. for 40 min and then terminated by rapid filtration over Whatman GF/B glass fiber filters presoaked in 0.3% polyethyleneimine using a Tomtec cell harvester (Gaithersburg, Md.). The assay tubes were rinsed with 2×6 ml of ice-cold 50 mM TrisHCl buffer (pH 7.4). The filter-bound radioactivity was determined on a Wallac Beta-plate (Gaithersburg, Md.) solid scintillation counter at 40-50% efficiency. The competition binding data were analyzed using an iterative curve-fitting computer program as previously described Michel, A. D. and Whiting, R. L. Brit. J. Pharmacol., 83:460p, 1984, Sharif, N. A., Wong, E. H. F., Loury, D., Stefanich, E., Eglen, R. M., Michel, A. D., and Whiting, R. L. Brit. J. Pharmacol., 102:919-925, 1991,. The drug affinities (dissociation constants, Kis) were calculated according to the Cheng-Prussof equation (Cheng, Y.-C. and Prusoff, W. H. Biochem. Pharmacol., 22:3099-3018, 1973 ): Ki=IC50/(1+L/Kd) where IC50 is the concentration of the drug needed to produce 50% inhibition of the receptor binding, L is the radioligand concentration in the assay and Kd is the dissociation constant of the radioligand.

[2] = tested on: Histamine induced vascular permeability in guinea pig conjunctiva; assay: Histamine induced vascular permeability in guinea pig conjunctiva; type: in vivo; settings: topical 20 μl onto eye, 30 min before subconjunctival histamine
Protocol: Male Dunkin Hartley Viral Antibody Free out bread guinea pigs (Charles River Labs, Portage, Mich.), 250-350 grams, (6/group) were injected intravenously (i.v.) via the marginal ear vein with 1.0 ml of Evans Blue dye (1.0 mg/ml). Forty-five (45) min post dye injection, 20 μl of test compound or vehicle was applied topically onto one eye of each experimental animal. Thirty (30) min following topical drug application, guinea pigs were anesthetized and challenged subconjunctivally with histamine (300 ng/10 μl). Responses were quantitated as previously described by Yanni, J. M., Weimer, L. K., Glaser, R. K., Lang, L. S., Robertson, S. M., and Spellman, J. M. Int. Arch. Allergy Immunol. 101:102-106, 1993

[3] = % inhibition at concentration 0.1%
[4] = % inhibition at concentration 0.01%

| SMILES | IC50 [1] [µM] | IC50 (H1 histamine receptor) [µM] | other results |
| --- | --- | --- | --- |
| CCN(CC)CCC1CCN(CCc2ccc3c(c2)/C(=C\CCN(C)C)c2ccccc2CO3)CC1 (as salt: fumaric acid salt) [Example 7, {3-[2-{2-[4-(2-Diethylamino-ethyl)-piperidin-1-yl]-ethyl}-6H-6,11-dibenz[b,e]oxepin-(11Z)-ylidene]-propyl}-dimethylamine fumaric acid salt] | – | – | melting point: 65 to 67 °C |
| CN(C)CC/C=C1/c2ccccc2COc2ccc(CC(=O)NC[C@@H]3CCCO3)cc21 [Example 1, (S)-2-{11-[3-Dimethylamino-prop-(Z)-ylidene]-6,11-dihydro-dibenz[b,e]-oxepin-2-yl}-N-tetrahydro-furan-2-ylmethyl)acetamide fumaric acid salt] | 61 | – | – |
| CCN(CC)CCC1CCN(C(=O)Cc2ccc3c(c2)/C(=C\CCN(C)C)c2ccccc2CO3)CC1 [Example 2, 1-[4-(2-Diethylamino-ethyl)-piperidin-1-yl]-2-{11-[3-dimethylamino-prop-(Z)-ylidene]-6,11-dihydro-dibenz[b,e]oxepin-2-yl}-ethanone fumaric acid salt] | 2 | – | – |
| CN(C)CC/C=C1/c2ccccc2COc2ccc(CC(N)=O)cc21 [Example 3, 2-[11Z-(3-Dimethylaminopropylidene)-6,11-dihydrodibenzo[b,e]oxepin-2-yl]acetamide] | 480 | 0.0022 | Histamine Induced Vascular Permeability ED50 or [Concentration] and (% inhibition) ([2]; % inhibition at concentration printed as 0.018 (no % sign)): 0.018 (59%) |
| CNC(=O)Cc1ccc2c(c1)/C(=C\CCN(C)C)c1ccccc1CO2 [Example 4, 2-[11Z-(3-Dimethylaminopropylidene)-6,11-dihydrodibenzo[b,e]oxepin-2-yl]-N-methylacetamide] | 220 | 0.0026 | Histamine Induced Vascular Permeability ED50 or [Concentration] and (% inhibition) [2, 3]: 0.1% (55%) |
| CN(C)CC/C=C1/c2ccccc2COc2ccc(CCN)cc21 [Example 8, {3-[2-(2-Aminoethyl)-6H-dibenzo[b,e]oxepin-11-ylidene]propyl}-dimethylamine] | 2 | – | Histamine Induced Vascular Permeability ED50 or [Concentration] and (% inhibition) [2, 3]: 0.1% (32%) |

Second part, led by results:

| IC50 [1] [µM] | IC50 (H1 histamine receptor) [µM] | SMILES | other results |
| --- | --- | --- | --- |
| 770 | 0.0013 | CN(C)CC/C=C1/c2ccccc2COc2ccc(CC(=O)NCCO)cc21 [Example 5, 2-[11Z-(3-Dimethylaminopropylidene)-6,11-dihydrodibenzo[b,e]oxepin-2-yl]-N-(2-hydroxyethyl)acetamide] | Histamine Induced Vascular Permeability ED50 or [Concentration] and (% inhibition) [2, 4]: 0.01% (43%) |
| 400 | 0.0026 | CN(C)CC/C=C1/c2ccccc2COc2ccc(CC(=O)N(C)C)cc21 [Example 6, 2-[11Z-(3-Dimethylaminopropylidene)-6,11-dihydrodibenzo[b,e]oxepin-2-yl]-N,N-dimethylacetamide] | Histamine Induced Vascular Permeability ED50 or [Concentration] and (% inhibition) [2, 4]: 0.01% (56%) |
| 15 | 0.127 | CN(C)CC/C=C1/c2ccccc2COc2ccc(CCNS(C)(=O)=O)cc21 [Example 9, N-{2-[11-(3-Dimethylaminoprop-(Z)-ylidene)-6,11-dihydrodibenzo[b,e]-oxepin-2-yl]ethyl}-methanesulfonamide] | Histamine Induced Vascular Permeability ED50 or [Concentration] and (% inhibition) ([2]; % inhibition at concentration 0.018%): 0.018% (74%) |
| 13 | 0.054 | CC(=O)NCCc1ccc2c(c1)/C(=C\CCN(C)C)c1ccccc1CO2 [Example 10, N-[2-[11-(3-Dimethylaminoprop-(Z)-ylidene)-6,11-dihydrodibenzo[b,e]-oxepin-2-yl]ethyl}-acetamide] | Histamine Induced Vascular Permeability ED50 or [Concentration] and (% inhibition) [2, 3]: 0.1% (41%) |
| 220 | – | CN1CCC(=C2c3ccccc3COc3ccc(OCC(=O)O)cc32)CC1 [Example 11, [11-(1-Methylpiperidin-4-ylidene)-6,11-dihydrodibenzo[b,e]oxepin-2-yloxy]acetic acid hydrochloride] | – |
